Literature values, collected in patent publication US20250127863A1, “ANTIMICROBIAL PEPTIDE FOR ONYCHOMYCOSIS” (CBMR SCIENTIFIC NANOSCIENCE B.V., priority 2019, published 2025).

Columns and labels:
onychomycosis [1] = details: topical, specialist setting; after 48 weeks of treatment; cited from earlier work
onychomycosis [2] = details: systemic use; cited from earlier work

Question: Which cure rates (onychomycosis [1]) does the source give for `C=C1CCN([C@H](C)[C@](O)(Cn2cncn2)c2ccc(F)cc2F)CC1` [efinaconazole] here?
Answer: 15.2-17.8%

Question: Which “(mycological) cure” value (onychomycosis [2]) does the source give for `CN(C/C=C/C#CC(C)(C)C)Cc1cccc2ccccc12` [terbinafine] here?
Answer: 70.9%

Question: With `Clc1ccc(C(Cn2ccnc2)OCc2ccsc2Cl)c(Cl)c1` (stereo not drawn) [tioconazole] as the compound, how does the cure rates (onychomycosis [1]) read?
Answer: 22%
